Data as given in patent publication US8613941B1, “Synergistic antimicrobial composition” (Dow Global Technologies LLC, priority 2012, dated 2013).

How the values were obtained:
[1] = system: oilfield SRB consortium; experiment: Biocidal efficacy against anaerobic bacteria for a high temperature and sulfide-rich environment; format: cell-based, sulfate reducing bacteria (SRB); details: alone or in the blend, 80° C., 7 days, 10 ppm sulfide ion, 10^4 to 10^5 CFU/mL
Description: Inside an anaerobic chamber (BACTRON IV), biocides solutions were challenged with 10^4 to 10^5 CFU/mL of an oilfield SRB consortium and 10 ppm sulfide ion (added in the form of sodium sulfide). The biocide solutions were then incubated at 80° C. under anaerobic condition for 7 days. Then the biocidal efficacy was evaluated against the field SRB consortium. The biocidal efficacy was determined by the biocide dosage required for 99.999% bacterial reduction. Synergy Index was then calculated. Table 2 summarizes the efficacy of each biocide and their blends, and the Synergy Index* of each combination.

[2] = system: oil field isolated anaerobic consortium, mainly SRB; experiment: Biocidal efficacy (MBC) of THPS, Tris Nitro and combination against sulfate reducing bacteria; format: cell-based, sulfate reducing bacteria (SRB); details: alone or in the blend, minimum tested biocide concentration for bacteria kill, 40° C., 24 hours, 10^6 to 10^7 CFU/mL
Description: Inside an anaerobic chamber (BACTRON anaerobic chamber), a deaerated sterile salt solution (3.1183 g of NaCl, 1.3082 mg of NaHCO3, 47.70 mg of KCl, 72.00 mg of CaCl2, 54.49 mg of MgSO4, 172.28 mg of Na2SO4, 43.92 mg of Na2CO3 in 1 L water) was contaminated with an oil field isolated anaerobic consortium, mainly SRB, at final bacterial concentrations of 10^6 to 10^7 CFU/mL. The aliquots of this contaminated water were then treated with THPS and Tris Nitro, or the THPS/Tris Nitro combination at different active concentration levels. After the mixtures were incubated at 40° C. for 24 hours, the biocidal efficacy was determined by minimum tested biocide concentration for bacteria kill in the aliquots (MBC). Table 1 summarizes the efficacy of each biocide and their blends, and the Synergy Index* of each combination.

Compound	Concentration (active ppm) required for 99.999% bacterial reduction, Tris Nitro ([1]; Tris Nitro concentration)	Average MBC (active ppm), Tris Nitro ([2]; Tris Nitro concentration)	Concentration (active ppm) required for 99.999% bacterial reduction, THPS ([1]; THPS concentration)	Average MBC (active ppm), THPS ([2]; THPS concentration)
O=[N+]([O-])C(CO)(CO)CO [0:1, tris(hydroxymethyl)nitromethane]	360 active ppm	46.1 active ppm		
tetrakis(hydroxymethyl)phosphonium sulfate [1:0]			360.0 active ppm	6.1 active ppm
